Tests used:
[1] = biological target: T1, stearoyl-CoA desaturase (SCD1) (Mus musculus, UniProt P13516); assay: Stearoyl-CoA desaturase inhibition, mouse liver microsomes (release of 3H2O from [9,10-3H]stearoyl-CoA); type: biochemical; details: 15 min incubation, 25° C., read-out: Microsomal IC50
T1 construct: Male ICR outbread mice, on a high-carbohydrate, low fat diet; from tissue; host or cells: liver microsomes of male ICR mice on a high-carbohydrate, low fat diet
T1 sequence (P13516 1-355): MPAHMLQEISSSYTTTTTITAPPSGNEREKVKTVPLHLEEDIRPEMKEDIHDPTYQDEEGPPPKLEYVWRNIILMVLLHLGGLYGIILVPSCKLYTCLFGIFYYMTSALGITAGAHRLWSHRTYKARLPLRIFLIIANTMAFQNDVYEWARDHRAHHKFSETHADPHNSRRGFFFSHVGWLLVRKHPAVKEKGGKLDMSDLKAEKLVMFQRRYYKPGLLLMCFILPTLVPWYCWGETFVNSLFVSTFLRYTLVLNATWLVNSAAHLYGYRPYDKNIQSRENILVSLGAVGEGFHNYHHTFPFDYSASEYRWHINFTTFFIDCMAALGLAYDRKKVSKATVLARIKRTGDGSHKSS
Excerpt: The identification of compounds of the invention as SCD inhibitors was readily accomplished using the SCD enzyme and microsomal assay procedure described in Shanklin J. and Summerville C., Proc. Natl. Acad. Sci. USA (1991), Vol. 88, pp. 2510-2514.
Measuring Stearoyl-CoA Desaturase Inhibition Activity of a Test Compound Using Mouse Liver Microsomes
The identification of compounds of the invention as SCD inhibitors was readily accomplished using the SCD microsomal assay procedure described in Shanklin J. and Summerville C., Proc. Natl. Acad. Sci. USA (1991), Vol. 88, pp. 2510-2514.
Male ICR outbread mice, on a high-carbohydrate, low fat diet, under light halothane (15% in mineral oil) anesthesia are sacrificed by exsanguination during periods of high enzyme activity. Livers are immediately rinsed with cold 0.9% NaCl solution, weighed and minced with scissors. All procedures are performed at 4° C. unless specified otherwise. Livers are homogenized in a solution (1/3 w/v) containing 0.25 M sucrose, 62 mM potassium phosphate buffer (pH 7.0), 0.15 M KCl, 15 mM N-acetyleysteine, 5 mM MgCl2, and 0.1 mM EDTA using 4 strokes of a Potter-Elvehjem tissue homogenizer. The homogenate is centrifuged at 10,400×g for 20 min to eliminate mitochondria and cellular debris. The supernatant is filtered through a 3-layer cheesecloth and centrifuged at 105,000×g for 60 min. The microsomal pellet is gently resuspended in the same homogenization solution with a small glass/teflon homogenizer and stored at −70° C. The absence of mitochondrial contamination is enzymatically assessed. The protein concentration is measured using bovine serum albumin as the standard.
Desaturase activity is measured as the release of ^3H2O from [9,10-^3H]stearoyl-CoA. Reactions per assay point conditions are as follows: 2 μL 1.5 mM stearoyl-CoA, 0.25 μL 1 mCi/mL ^3H stearoyl CoA, 10 μL 20 mM NADH, 36.75 μL 0.1 M PK buffer (K2HPO4/NaH2PO4, pH 7.2). The test compound or control solution is added in a 1 μL volume. Reactions are started by adding 50 μL of microsomes (1.25 mg/mL). The plates are mixed and after 15 min incubation on a heating block (25° C.), the reactions are stopped by the addition of 10 μL 60% PCA. An aliquot of 100 μL is then transferred to a filter plate pretreated with charcoal and the plate centrifuged at 4000 rpm for 1 minute. The flow through containing the ^3H2O released by the SCD1 desaturation reaction is added to scintillation fluid and the radioactivity measured in a Packard TopCount. The data is analysed to identify the IC50 for test compounds and reference compounds.
The activity was defined in terms of % SCD enzyme activity remaining at the desired concentration of the test compound or as the IC50 concentration. The IC50 (affinity) of the example compounds toward the stearoyl-CoA desaturase is comprised between around […] and 0.0001 μM or between around 5 μM and 0.0001 μM or between around 1 μM and 0.0001 μM.

| IC50 [1] [nM] | melting point [°C] | SMILES |
| --- | --- | --- |
| 156 | – | Cc1nc(N2CCN(CC(C)C)C2=O)sc1C(=O)NCc1cccnc1 [Example 12.18, 2-(3-isobutyl-2-oxoimidazolidin-1-yl)-4-methyl-N-(pyridin-3-ylmethyl)thiazole-5-carboxamide] |
| – | 170 to 172 | Cc1nc(N2CCN(Cc3ccc(F)cc3)C2=O)sc1C(=O)NCc1csc(C(C)C)n1 [Example 16.4, 2-(3-(4-fluorobenzyl)-2-oxoimidazolidin-1-yl)-N-((2-isopropylthiazol-4-yl)methyl)-4-methylthiazole-5-carboxamide] |
| – | 149 to 151 | Cc1nc(-n2cnn(Cc3ccc(F)cc3)c2=O)sc1C(=O)NCc1cccc(N(C)C)c1 [Example 16.5, N-(3-(dimethylamino)benzyl)-2-(1-(4-fluorobenzyl)-5-oxo-1H-1,2,4-triazol-4(5H)-yl)-4-methylthiazole-5-carboxamide] |
| – | 273 to 275 | Cc1nc(-n2cnn(CC3CC3(F)F)c2=O)sc1C(N)=O (centres unmarked) [Example 16.6, 2-(1-((2,2-difluorocyclopropyl)methyl)-5-oxo-1H-1,2,4-triazol-4(5H)-yl)-4-methylthiazole-5-carboxamide] |
| – | 151 to 153 | Cc1nc(-n2cnn(Cc3ccc(F)cc3)c2=O)sc1C(=O)NCc1csc(C(C)C)n1 [Example 16.7] |
| – | 227 to 230 | Cc1nc(N2CCN(CC3CC3(F)F)C2=O)sc1-c1cc[nH]n1 (centres unmarked) [Example 17, 1-((2,2-difluorocyclopropyl)methyl)-3-(4-methyl-5-(1H-pyrazol-3-yl)thiazol-2-yl)imidazolidin-2-one] |
| – | 185 to 186 | Cc1nc(N2CCN(CCCC(F)(F)F)C2=O)sc1-c1cc[nH]n1 [Example 17.1, 1-(4-methyl-5-(1H-pyrazol-3-yl)thiazol-2-yl)-3-(4,4,4-trifluorobutyl)imidazolidin-2-one] |
| – | 136 to 139 | Cc1nc(-n2cnn(Cc3ccc(F)cc3)c2=O)sc1-c1nn[nH]n1 [Example 18, 1-(4-fluorobenzyl)-4-(4-methyl-5-(2H-tetrazol-5-yl)thiazol-2-yl)-1H-1,2,4-triazol-5(4H)-one] |
| – | 145 to 149 | Cc1nc(N2CCN(Cc3ccc(F)cc3)C2=O)sc1-c1nn[nH]n1 [Example 18.1, 1-(4-fluorobenzyl)-3-(4-methyl-5-(2H-tetrazol-5-yl)thiazol-2-yl)imidazolidin-2-one] |
| 1210 | – | Cc1nc(N2C(=O)N(Cc3ccc(F)cc3)C3CC32)sc1C(=O)NCc1cccnc1 (centres unmarked) [Example 19, 2-(4-(4-fluorobenzyl)-3-oxo-2,4-diazabicyclo[3.1.0]hexan-2-yl)-4-methyl-N-(pyridin-3-ylmethyl)thiazole-5-carboxamide] |
| 98 | – | Cc1nc(-n2cnn(C(C)c3ccccc3)c2=O)sc1C(=O)NCc1cccnc1 (centres unmarked) [Example 20-5, 4-methyl-2-(5-oxo-1-(1-phenylethyl)-1H-1,2,4-triazol-4(5H)-yl)-N-(pyridin-3-ylmethyl)thiazole-5-carboxamide] |
| 80 | – | Cc1nc(-n2cnn(C(C)c3ccccc3)c2=O)sc1C(N)=O (centres unmarked) [Example 20-6, 4-methyl-2-(5-oxo-1-(1-phenylethyl)-1H-1,2,4-triazol-4(5H)-yl)thiazole-5-carboxamide] |
| 1720 | – | Cc1nc(-n2cnn(Cc3ccc(F)cc3)c2=O)sc1C(=O)NCc1ccc(C(F)(F)F)nc1 [Example 20-8, 2-(1-(4-fluorobenzyl)-5-oxo-1H-1,2,4-triazol-4(5H)-yl)-4-methyl-N-((6-(trifluoromethyl)pyridin-3-yl)methyl)thiazole-5-carboxamide] |
| 8 | – | Cc1nc(-n2cnn(C(C)c3ccccc3)c2=O)sc1C(=O)NCc1cncs1 (centres unmarked) [Example 20-10, 4-methyl-2-(5-oxo-1-(1-phenylethyl)-1H-1,2,4-triazol-4(5H)-yl)-N-(thiazol-5-ylmethyl)thiazole-5-carboxamide] |
| 18 | – | Cc1nc(-n2cnn(CC3CC3(F)F)c2=O)sc1C(=O)NCc1cncs1 (centres unmarked) [Example 20-12, 2-(1-((2,2-difluorocyclopropyl)methyl)-5-oxo-1H-1,2,4-triazol-4(5H)-yl)-4-methyl-N-(thiazol-5-ylmethyl)thiazole-5-carboxamide] |
| 208 | – | Cc1nc(-n2cnn(C(C)c3ccccc3)c2=O)sc1C(=O)NCc1csc(C(F)(F)F)n1 (centres unmarked) [Example 20-17, 4-methyl-2-(5-oxo-1-(1-phenylethyl)-1H-1,2,4-triazol-4(5H)-yl)-N-((2-(trifluoromethyl)-thiazol-4-yl)-methyl)thiazole-5-carboxamide] |
| 709 | – | Cc1nc(N2CCN(Cc3ccc(C(F)(F)F)cc3)C2=O)sc1C(=O)NCc1ccc2nccn2c1 [Example 20-22, N-(imidazo[1,2-a]pyridin-6-ylmethyl)-4-methyl-2-(2-oxo-3-(4-(trifluoromethyl)-benzyl)imidazolidin-1-yl)-thiazole-5-carboxamide] |
| 40 | – | Cc1nc(N2CCN(Cc3cccc(F)c3)C2=O)sc1C(N)=O [Example 20-24, 2-(3-(3-fluorobenzyl)-2-oxoimidazolidin-1-yl)-4-methylthiazole-5-carboxamide] |
| 11 | – | Cc1nc(N2CCN(C(C)c3ccccc3)C2=O)sc1C(=O)NCc1cncs1 (centres unmarked) [Example 20-26, 4-methyl-2-(2-oxo-3-(1-phenylethyl)-imidazolidin-1-yl)-N-(thiazol-5-yl-methyl)thiazole-5-carboxamide] |
| 13 | – | Cc1nc(-n2cnn(Cc3cc(F)cc(F)c3)c2=O)sc1C(=O)NCc1ccccn1 [Example 20-52, 2-(1-(3,5-difluorobenzyl)-5-oxo-1H-1,2,4-triazol-4(5H)-yl)-4-methyl-N-(pyridin-2-ylmethyl)-thiazole-5-carboxamide] |
| 20 | – | Cc1nc(-n2cnn(Cc3ccc(OC(F)(F)F)cc3)c2=O)sc1C(=O)NCc1ccccn1 [Example 20-54, 4-methyl-2-(5-oxo-1-(4-(trifluoromethoxy)-benzyl)-1H-1,2,4-triazol-4(5H)-yl)-N-(pyridin-2-ylmethyl)-thiazole-5-carboxamide] |
| 119 | – | Cc1nc(-c2sc(N3CCN(Cc4ccc(OC(F)(F)F)cc4)C3=O)nc2C)n[nH]1 [Example 20-57, 1-(4-methyl-5-(5-methyl-1H-1,2,4-triazol-3-yl)thiazol-2-yl)-3-(4-(trifluoromethoxy)-benzyl)imidazolidin-2-one] |
| 551 | – | Cc1nc(-n2cnn(CC3CC3(F)F)c2=O)sc1C(=O)NCc1cnn(C)c1 (centres unmarked) [Example 20-76, 2-(1-((2,2-difluorocyclopropyl)methyl)-5-oxo-1H-1,2,4-triazol-4(5H)-yl)-4-methyl-N-((1-methyl-1H-pyrazol-4-yl)methyl)thiazole-5-carboxamide] |
| 11 | – | Cc1cc(CNC(=O)c2sc(N3CCN(CC4CC4)C3=O)nc2C)no1 [Example 20-83, 2-(3-(cyclopropylmethyl)-2-oxoimidazolidin-1-yl)-4-methyl-N-((5-methylisoxazol-3-yl)methyl)thiazole-5-carboxamide] |
| 8 | – | Cc1nc(N2CCN(Cc3cc(Cl)cc(Cl)c3)C2=O)sc1C(=O)NCc1ccccn1 [Example 20-90, 2-(3-(3,5-dichlorobenzyl)-2-oxoimidazolidin-1-yl)-4-methyl-N-(pyridin-2-ylmethyl)thiazole-5-carboxamide] |
| 38 | – | Cc1nc(N2CCN(CCC3CC3)C2=O)sc1C(=O)NCc1ccccn1 [Example 20-103, 2-(3-(2-cyclopropylethyl)-2-oxoimidazolidin-1-yl)-4-methyl-N-(pyridin-2-ylmethyl)thiazole-5-carboxamide] |

— patent US8318949B2, “Organic compounds” (Novartis AG, priority 2008, dated 2012)
